Laboratory results reported in patent EP4678643A1, “KRAS INHIBITOR COMPOUND, PHARMACEUTICAL COMPOSITION THEREOF, AND USE THEREOF” (Sunshine Lake Pharma Co., Ltd., priority 2023, dated 2024).
Read-outs that look alike come from different tables or passages of the source.

Experiments:
[1] = system: pERK in AGS cells (KRAS G12D); experiment: Inhibitory effect on intracellular pERK by In-Cell Western assay, AGS; format: cell-based; conditions: pERK inhibition, compound incubation 3 h, read-out: AGS, IC50 (nM) KRAS p.G12D
Description: (§1) 1. Determination of Inhibitory Effect on Intracellular pERK by In-Cell Western Assay
(§2) (1) On the first day, the following cells were revived and cultured with the corresponding culture medium and incubated at 37 °C, 5% CO2 until confluence.
(§3) (2) On the third day, the culture medium was removed, the cells were rinsed once with DPBS, 2 mL of TrypLE™ trypsin was added for digestion, and the cells were placed at room temperature until the cells detached. (3) 5 mL fresh culture medium was added to resuspend cells to terminate the digestion, and the cells were gently pipetted and centrifuged at 1000 rpm for 5 minutes at room temperature. (4) The supernatant was removed, and 5 mL fresh culture medium was added to resuspend the cells and count cells. (5) The cells were plated in a 384-well plate with appropriate cell concentration by adjusting with complete culture medium and incubated at 37 °C, 5% CO2 for overnight. (6) 200 nL of the prepared serial dilution compound (DMSO final concentration was 0.5%) was added and incubated at 37 °C, CO2 for 3 h (HPAC cell lines for 1 h). (7) The cells were fixed. (8) The cells were washed twice with PBS. (9) The blocking solution was added and the cells were incubated at room temperature for 1 h. (10) The blocking solution was removed, and the primary antibody (phospho-ERK Rabbit mAb + GAPDH (D4C6R) Mouse mAb) was added and the cells were incubated at 4 °C for overnight. (11) The cells were washed twice with PBST (PBS + 0.05% Tween 20) for 2 minutes each time. (12) PBST was removed and secondary antibody (IRDye 800CW Goat anti-Rabbit IgG (H+L) + IRDye 680RD Goat anti Mouse IgG (H+L)) was added and incubated away from light at room temperature. (14) Secondary antibody was discarded and the cell was washed twice with PBST, 2 minutes each time. (15) 384-well plate was inverted and centrifuged at 1000 rpm at room temperature for 1 minute, and the 384-well plate was scanned with Odyssey CLx.

[2] = system: pERK in H358 cells (KRAS p.G12C); experiment: Inhibitory effect on intracellular pERK by In-Cell Western assay, H358; format: cell-based; conditions: Homo sapiens, NCI-H358, pERK inhibition, compound incubation 3 h
Description: as §1, §2
as §3, with “CLx. (16) Data analysis: • a) Assay stability check was peformed by using DMSO and reference control data: [formula] [formula] • b) nonlinear fitting of Compound IC50: Y = Bottom + (Top−Bottom)/(1+10^(∧)((LogIC50−X)×HillSlope)). [formula]” for “CLx.”

[3] = system: pERK in MKN1 cells (KRAS WTdep); experiment: Inhibitory effect on intracellular pERK by In-Cell Western assay, MKN1; format: cell-based; conditions: Homo sapiens, MKN-1, pERK inhibition, compound incubation 3 h
Description: as §1, §2
as §3, with “CLx. (16) Data analysis: • a) Assay stability check was peformed by using DMSO and reference control data: [formula] [formula] • b) nonlinear fitting of Compound IC50: Y = Bottom + (Top−Bottom)/(1+10^(∧)((LogIC50−X)×HillSlope)). [formula]” for “CLx.”

[4] = system: pERK in HPAC cells (KRAS p.G12D); experiment: Inhibitory effect on intracellular pERK by In-Cell Western assay, HPAC; format: cell-based; conditions: Homo sapiens, pERK inhibition, compound incubation 1 h, read-out: HPAC, IC50 (nM) KRASp.G12D
Description: as §1, §2
as §3, with “CLx. (16) Data analysis: • a) Assay stability check was peformed by using DMSO and reference control data: [formula] […]” for “CLx.”

[5] = system: pERK in NCI-H727 cells (KRAS p.G12V); experiment: Inhibitory effect on intracellular pERK by In-Cell Western assay, NCI-H727; format: cell-based; conditions: Homo sapiens, pERK inhibition, compound incubation 3 h
Description: as §1, §2
as §3, with “CLx. (16) Data analysis: • a) Assay stability check was peformed by using DMSO and reference control data: [formula] […]” for “CLx.”

KRAS G12D-GTP & cRAF = KRAS G12D-GTP & cRAF (Homo sapiens, UniProt P01116, G12D); experiment: KRAS G12D/cRAF Binding Assay (HTRF); conditions: competitive binding, 665/615 nm ratio
Text: 2. KRAS G12D/cRAF Binding Assay

KRAS G12D-GTP & SOS1 = KRAS G12D-GTP & SOS1 (Homo sapiens, UniProt P01116, G12D); experiment: KRAS G12D/SOS1 Binding Assay (HTRF); conditions: competitive binding, 665/615 nm ratio
Text: 3. KRAS G12D/SOS1 Binding Assay

[6] = system: pERK in A549 cells (KRAS p.G12S); experiment: Inhibitory effect on intracellular pERK by In-Cell Western assay, A549; format: cell-based; conditions: Homo sapiens, pERK inhibition, compound incubation 3 h
Description: as §1, §2
as §3, with “CLx. (16) Data analysis: • a) Assay stability check was peformed by using DMSO and reference control data: [formula] [formula] • b) nonlinear fitting of Compound IC50: Y = Bottom + (Top−Bottom)/(1+10^(∧)((LogIC50−X)×HillSlope)). [formula]” for “CLx.”

[7] = system: pERK in HCT 116 cells (KRAS p.G13D); experiment: Inhibitory effect on intracellular pERK by In-Cell Western assay, HCT 116; format: cell-based; conditions: Homo sapiens, pERK inhibition, compound incubation 3 h
Description: as §1, §2
as §3, with “CLx. (16) Data analysis: • a) Assay stability check was peformed by using DMSO and reference control data: [formula] [formula] • b) nonlinear fitting of Compound IC50: Y = Bottom + (Top−Bottom)/(1+10^(∧)((LogIC50−X)×HillSlope)). [formula]” for “CLx.”

Sequence of KRAS G12D-GTP & cRAF (P01116 1-188 isoform P01116-2 G12D): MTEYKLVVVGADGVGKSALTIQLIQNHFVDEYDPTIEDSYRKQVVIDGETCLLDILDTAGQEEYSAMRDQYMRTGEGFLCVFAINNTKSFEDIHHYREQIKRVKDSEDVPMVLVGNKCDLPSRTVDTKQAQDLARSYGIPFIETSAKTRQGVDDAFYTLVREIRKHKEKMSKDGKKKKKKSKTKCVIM
Sequence of KRAS G12D-GTP & SOS1 (P01116 1-188 isoform P01116-2 G12D): as above

CC#Cc1nc(-c2cc(O)cc3ccc(F)c(CC)c23)c(F)c2nc(OCC34CCCN3CCC4)nc(N3CCCCC(=O)C3)c12 [Compound 35]
IC50 ([1]; Homo sapiens, AGS, 3 h): 4.4 nM

CC#Cc1nc(-c2cc(O)cc3ccc(F)c(CC)c23)c(F)c2nc(OCC34CCCN3CC(F)C4)nc(N3CCCOCC3)c12 (centres unmarked) [Compound 2]
IC50 [2]: 2 nM | IC50 [3]: 6.4 nM | IC50 [4]: 1.6 nM | IC50 [5]: 4.8 nM | IC50 ([1]; Homo sapiens, AGS, 3 h): 2.2 nM | IC50 (KRAS G12D-GTP & cRAF): 13.7 nM | IC50 (KRAS G12D-GTP & SOS1): 20.8 nM

C#Cc1c(F)ccc2cc(O)cc(-c3nc(C#CC)c4c(N5CCOCC(F)(F)C5)nc(OC[C@@]56CCCN5C[C@H](F)C6)nc4c3F)c12 [Compound 38]
IC50 [2]: 0.4 nM | IC50 [3]: 1.41 nM | IC50 [6]: 1.2 nM | IC50 [7]: 5.4 nM | IC50 ([1]; Homo sapiens, AGS, 3 h): 1.6 nM

C#Cc1c(F)ccc2cc(O)cc(-c3nc(C#CC)c4c(N5CCCOCC5)nc(OCC56CCCN5CC(F)(F)C6)nc4c3F)c12 (centres unmarked) [Compound 15]
IC50 ([1]; Homo sapiens, AGS, 3 h): 15 nM

CC#Cc1nc(-c2cc(O)cc3cccc(F)c23)c(F)c2nc(OC[C@@]34CCCN3C[C@H](F)C4)nc(N3CCCOCC3)c12 [Compound 24]
IC50 ([1]; Homo sapiens, AGS): 5.4 nM

C#Cc1c(F)ccc2cc(N)cc(-c3nc(C#CC)c4c(N5CCCOCC5)nc(OC[C@@]56CCCN5C[C@H](F)C6)nc4c3F)c12 [Compound 22]
IC50 ([1]; Homo sapiens, AGS, 3 h): 2.8 nM

CC#Cc1nc(-c2cc(O)cc3cccc(Cl)c23)c(F)c2nc(OC[C@@]34CCCN3C[C@H](F)C4)nc(N3CCCOCC3)c12 [Compound 23]
IC50 ([1]; Homo sapiens, AGS, 3 h): 6.1 nM

CCC#Cc1nc(-c2cc(O)cc3ccc(F)c(CC)c23)c(F)c2nc(OC[C@@]34CCCN3C[C@H](F)C4)nc(N3CCCOCC3)c12 [Compound 4]
IC50 ([1]; Homo sapiens, AGS, 3 h): 7.5 nM

C#Cc1c(F)ccc2cc(O)cc(-c3nc(C#CCOC4CCC4)c4c(N5CCCOCC5)nc(OC[C@@]56CCCN5C[C@H](F)C6)nc4c3F)c12 [Compound 5]
IC50 ([1]; Homo sapiens, AGS, 3 h): 8.6 nM

C#Cc1c(F)ccc2cc(O)cc(-c3nc(C#CC)c4c(N5CCCOCC5)nc(OC[C@@H]5C[C@@H](F)CN5C)nc4c3F)c12 [Compound 16]
IC50 ([1]; Homo sapiens, AGS, 3 h): 8.1 nM

C#Cc1c(F)ccc2cc(O)cc(-c3nc(C#CC)c4c(N5CCCOCC5)nc(OCC56CCCN5CC(F)C6)nc4c3F)c12 (centres unmarked) [Compound 17]
IC50 [1]: 0.8 nM

C#Cc1c(F)ccc2cc(O)cc(-c3nc(C#C)c4c(N5CCCOCC5)nc(OCC56CC(=C)CN5CC(=C)C6)nc4c3F)c12 [Compound 10]
IC50 [2]: 0.7 nM | IC50 [3]: 1.6 nM | IC50 [6]: 1.4 nM | IC50 [7]: 6.2 nM | IC50 ([1]; Homo sapiens, AGS, 3 h): 0.8 nM
